Values after ≈ are worked out from the molar mass of the structure shown.
The compounds below were run on Acinetobacter baumannii (assay: Antimicrobial activity against ISAba1 linked with the blaOXA-51-type beta-lactamase harboring Acinetobacter baumannii zeta clonal group isolate 21 expressing ampC, ompA, adeB, adeM, aacC2, blaSHV-5 by Etest method).
Format: functional
For `CC(C)(O/N=C(\C(=O)N[C@@H]1C(=O)N2C(C(=O)[O-])=C(C[n+]3ccccc3)CS[C@H]12)c1csc(N)n1)C(=O)O` [CEFTAZIDIME], the MIC was 32 µg/mL (≈ 58.5 µM).

The compounds below were run on Acinetobacter baumannii (assay: Antimicrobial activity against ISAba1 linked with the blaOXA-51-type beta-lactamase harboring Acinetobacter baumannii zeta clonal group isolate 22 expressing ampC, ompA, adeB, adeM, aadA1, aacA4, aacC2, blaSHV-5 by Etest method).
Format: functional
With `CC(C)(O/N=C(\C(=O)N[C@@H]1C(=O)N2C(C(=O)[O-])=C(C[n+]3ccccc3)CS[C@H]12)c1csc(N)n1)C(=O)O` [CEFTAZIDIME] the MIC was > 256 µg/mL.

These compounds were tested on Acinetobacter baumannii (assay: Antimicrobial activity against ISAba1 linked with the blaOXA-51-type beta-lactamase harboring Acinetobacter baumannii zeta clonal group isolate 23 expressing ampC, ompA, adeB, adeM, aadA1, aacA4, aacC2, aphA6 by Etest method).
Format: functional
In the case of `CC(C)(O/N=C(\C(=O)N[C@@H]1C(=O)N2C(C(=O)[O-])=C(C[n+]3ccccc3)CS[C@H]12)c1csc(N)n1)C(=O)O` [CEFTAZIDIME], the MIC is reported as 16 µg/mL (≈ 29.3 µM).

Each compound was assayed on Acinetobacter baumannii (assay: Antimicrobial activity against ISAba1 linked with the blaOXA-51-type beta-lactamase harboring Acinetobacter baumannii zeta clonal group isolate 24 expressing ampC, ompA, adeB, adeM, aadA1, aacA4, aacC2, blaSHV-5 by Etest method).
Format: functional
In the case of `CC(C)(O/N=C(\C(=O)N[C@@H]1C(=O)N2C(C(=O)[O-])=C(C[n+]3ccccc3)CS[C@H]12)c1csc(N)n1)C(=O)O` [CEFTAZIDIME], the MIC is reported as > 256 µg/mL.

These compounds were tested on Acinetobacter baumannii (assay: Antimicrobial activity against ISAba1 linked with the blaOXA-51-type beta-lactamase harboring Acinetobacter baumannii zeta clonal group isolate 25 expressing ampC, ompA, adeB, adeM, aadA1, aacA4, aacC2, blaSHV-5 by Etest method).
Format: functional
With `CC(C)(O/N=C(\C(=O)N[C@@H]1C(=O)N2C(C(=O)[O-])=C(C[n+]3ccccc3)CS[C@H]12)c1csc(N)n1)C(=O)O` [CEFTAZIDIME] the MIC was > 256 µg/mL.

What follows are compounds tested on Acinetobacter baumannii (assay: Antimicrobial activity against ISAba1 linked with the blaOXA-51-type beta-lactamase harboring Acinetobacter baumannii zeta clonal group isolate 26 expressing ampC, ompA, adeB, adeM, aadA1, aacA4, aacC2, blaSHV-5 by Etest method).
Format: functional
`CC(C)(O/N=C(\C(=O)N[C@@H]1C(=O)N2C(C(=O)[O-])=C(C[n+]3ccccc3)CS[C@H]12)c1csc(N)n1)C(=O)O` [CEFTAZIDIME] was tested, and the MIC was > 256 µg/mL.

These compounds were tested on Acinetobacter baumannii (assay: Antimicrobial activity against Acinetobacter baumannii lambda clonal group isolate 27 expressing ampC, ompA, adeB, adeM, aadB, aadA1 by Etest method).
Format: functional
In the case of `CC(C)(O/N=C(\C(=O)N[C@@H]1C(=O)N2C(C(=O)[O-])=C(C[n+]3ccccc3)CS[C@H]12)c1csc(N)n1)C(=O)O` [CEFTAZIDIME], the MIC is reported as > 256 µg/mL.

The compounds below were run on Acinetobacter baumannii (assay: Antimicrobial activity against ISAba1 linked with the blaOXA-51-type beta-lactamase harboring Acinetobacter baumannii lambda clonal group isolate 28 expressing ampC, ompA, adeM, aadB, aadA1 by Etest method).
Format: functional
For `CC(C)(O/N=C(\C(=O)N[C@@H]1C(=O)N2C(C(=O)[O-])=C(C[n+]3ccccc3)CS[C@H]12)c1csc(N)n1)C(=O)O` [CEFTAZIDIME], the MIC was > 256 µg/mL.

Each compound was assayed on Acinetobacter baumannii (assay: Antimicrobial activity against ISAba1 linked with the blaOXA-51-type beta-lactamase harboring Acinetobacter baumannii lambda clonal group isolate 29 expressing ampC, ompA, adeM, aadB, aadA1 by Etest method).
Format: functional
`CC(C)(O/N=C(\C(=O)N[C@@H]1C(=O)N2C(C(=O)[O-])=C(C[n+]3ccccc3)CS[C@H]12)c1csc(N)n1)C(=O)O` [CEFTAZIDIME] was tested, and the MIC was > 256 µg/mL.

The compounds below were run on Acinetobacter baumannii (assay: Antimicrobial activity against ISAba1 linked with the blaOXA-51-type beta-lactamase harboring Acinetobacter baumannii lambda clonal group isolate 30 expressing ampC, ompA, adeB, adeM, aadB, aadA1 by Etest method).
Format: functional
In the case of `CC(C)(O/N=C(\C(=O)N[C@@H]1C(=O)N2C(C(=O)[O-])=C(C[n+]3ccccc3)CS[C@H]12)c1csc(N)n1)C(=O)O` [CEFTAZIDIME], the MIC is reported as > 256 µg/mL.

Each compound was assayed on Acinetobacter baumannii (assay: Antimicrobial activity against Acinetobacter baumannii nu clonal group isolate 31 expressing ampC, ompA, adeB, adeM, aadB, aadA2 by Etest method).
Format: functional
Work on `CC(C)(O/N=C(\C(=O)N[C@@H]1C(=O)N2C(C(=O)[O-])=C(C[n+]3ccccc3)CS[C@H]12)c1csc(N)n1)C(=O)O` [CEFTAZIDIME] yielded an MIC of 4 µg/mL (≈ 7.32 µM).

Each compound was assayed on Acinetobacter baumannii (assay: Antimicrobial activity against Acinetobacter baumannii nu clonal group isolate 32 expressing ampC, ompA, adeB, adeM, aadB, aadA2 by Etest method).
Format: functional
`CC(C)(O/N=C(\C(=O)N[C@@H]1C(=O)N2C(C(=O)[O-])=C(C[n+]3ccccc3)CS[C@H]12)c1csc(N)n1)C(=O)O` [CEFTAZIDIME] showed an MIC of 4 µg/mL (≈ 7.32 µM).

The compounds below were run on Acinetobacter baumannii (assay: Antimicrobial activity against Acinetobacter baumannii nu clonal group isolate 33 expressing ampC, ompA, adeB, adeM by Etest method).
Format: functional
In the case of `CC(C)(O/N=C(\C(=O)N[C@@H]1C(=O)N2C(C(=O)[O-])=C(C[n+]3ccccc3)CS[C@H]12)c1csc(N)n1)C(=O)O` [CEFTAZIDIME], the MIC is reported as 6 µg/mL (≈ 11 µM).

Each compound was assayed on Acinetobacter baumannii (assay: Antimicrobial activity against Acinetobacter baumannii nu clonal group isolate 34 expressing ampC, ompA, adeB, adeM by Etest method).
Format: functional
Work on `CC(C)(O/N=C(\C(=O)N[C@@H]1C(=O)N2C(C(=O)[O-])=C(C[n+]3ccccc3)CS[C@H]12)c1csc(N)n1)C(=O)O` [CEFTAZIDIME] yielded an MIC of 6 µg/mL (≈ 11 µM).

These compounds were tested on Acinetobacter baumannii (assay: Antimicrobial activity against Acinetobacter baumannii eta clonal group isolate 35 expressing ampC, ompA, adeB, adeM by Etest method).
Format: functional
Compound `CC(C)(O/N=C(\C(=O)N[C@@H]1C(=O)N2C(C(=O)[O-])=C(C[n+]3ccccc3)CS[C@H]12)c1csc(N)n1)C(=O)O` [CEFTAZIDIME] has an MIC of 12 µg/mL (≈ 22 µM).

The compounds below were run on Acinetobacter baumannii (assay: Antimicrobial activity against Acinetobacter baumannii eta clonal group isolate 36 expressing ampC, ompA, adeB, adeM by Etest method).
Format: functional
For `CC(C)(O/N=C(\C(=O)N[C@@H]1C(=O)N2C(C(=O)[O-])=C(C[n+]3ccccc3)CS[C@H]12)c1csc(N)n1)C(=O)O` [CEFTAZIDIME], the MIC was 12 µg/mL (≈ 22 µM).

The compounds below were run on Acinetobacter baumannii (assay: Antimicrobial activity against Acinetobacter baumannii unique clonal group isolate 37 expressing ampC, ompA, adeB, adeM by Etest method).
Format: functional
With `CC(C)(O/N=C(\C(=O)N[C@@H]1C(=O)N2C(C(=O)[O-])=C(C[n+]3ccccc3)CS[C@H]12)c1csc(N)n1)C(=O)O` [CEFTAZIDIME] the MIC was 12 µg/mL (≈ 22 µM).

These compounds were tested on Acinetobacter baumannii (assay: Antimicrobial activity against Acinetobacter baumannii unique clonal group isolate 38 expressing ampC, ompA, adeB, adeM by Etest method).
Format: functional
`CC(C)(O/N=C(\C(=O)N[C@@H]1C(=O)N2C(C(=O)[O-])=C(C[n+]3ccccc3)CS[C@H]12)c1csc(N)n1)C(=O)O` [CEFTAZIDIME] was tested, and the MIC was 16 µg/mL (≈ 29.3 µM).

What follows are compounds tested on Acinetobacter baumannii (assay: Antimicrobial activity against Acinetobacter baumannii unique clonal group isolate 39 expressing ampC, ompA, adeM by Etest method).
Format: functional
In the case of `CC(C)(O/N=C(\C(=O)N[C@@H]1C(=O)N2C(C(=O)[O-])=C(C[n+]3ccccc3)CS[C@H]12)c1csc(N)n1)C(=O)O` [CEFTAZIDIME], the MIC is reported as 4 µg/mL (≈ 7.32 µM).

These compounds were tested on Acinetobacter baumannii (assay: Antimicrobial activity against ISAba1 linked with the blaOXA-51-type beta-lactamase harboring Acinetobacter baumannii unique clonal group isolate 40 expressing ampC, ompA, adeB, adeM, aadA1, aacA4, aacC2, blaSHV-5 by Etest method).
Format: functional
For `CC(C)(O/N=C(\C(=O)N[C@@H]1C(=O)N2C(C(=O)[O-])=C(C[n+]3ccccc3)CS[C@H]12)c1csc(N)n1)C(=O)O` [CEFTAZIDIME], the MIC was > 256 µg/mL.

— ChEMBL document CHEMBL1671617, “Correlation of antimicrobial resistance with beta-lactamases, the OmpA-like porin, and efflux pumps in clinical isolates of Acinetobacter baumannii endemic to New York City” (2008)
